Results on 5 compounds are retold here after patent publication US20070093969A1, “Molecular nephrotoxicology modeling” (priority 2002, published 2007).

SMILES strings stand for the structures.

One data set has as its system mice. The following applies: single dose; cited from earlier work.
Data set [1] relates to angiotensin converting enzyme (ACE). As to conditions: 20, 25, and 30 days post-treatment; cited from earlier work.
In another data set the test system is rabbits. The following applies: rabbit, in vivo; cited from earlier work.
The next data set has as its system rats and mice. The following applies: in vivo; cited from earlier work.
The test system of data set [2] is patients. The following applies: 90 mg per month; cited from earlier work.
The next data set concerns human population. The following applies: in vivo; cited from earlier work.
A further data set relates to rats. As to conditions: rat, in vivo; cited from earlier work.
The subject of data set [3] is patients. The following applies: four HIV-positive patients; cited from earlier work.
Data set [4] can be described thus: Clinical pathology (clinical chemistry) of dosed rats. Type of data set: in vivo, male Sprague-Dawley rats. The following applies: rats given the high dosage of diflunisal. The method, then:
In both the ibuprofen and the diflunisal group, two patients complained of abdominal cramping.
1. Frequency—Prior to necropsy.
2. Number of animals—All surviving animals.
3. Bleeding Procedure—Blood was obtained by puncture of the orbital sinus while under 70% CO2/30% O2 anesthesia.
Collection of Blood Samples—Approximately 0.5 mL of blood was collected into EDTA tubes for evaluation of hematology parameters. Approximately 1 mL of blood was collected into serum separator tubes for clinical chemistry analysis. Approximately 200 uL of plasma was obtained and frozen at […] for test compound/metabolite estimation. An additional ˜2 mL of blood was collected into a 15 mL conical polypropylene vial to which ˜3 mL of Trizol was immediately added. The contents were immediately mixed with a vortex and by repeated inversion. The tubes were frozen in liquid nitrogen and stored at […]

A further data set concerns rat hepatocytes. As to conditions: cited from earlier work.

On to `COc1cccc2c1C(=O)c1c(O)c3c(c(O)c1C2=O)C[C@@](O)(C(=O)CO)C[C@@H]3O[C@H]1C[C@H](N)[C@H](O)[C@H](C)O1` [adriamycin, Adriamycin], for which the renal signs entry in the data set with mice was “combined glomerular albuminuria and immunoglublinuria”. In data set [1], the “serum ACE levels” value was “significantly elevated”. Further, the nephrotoxicity entry in the data set with rabbits is “signs of nephrotoxicity at relatively low doses”.

As for `NCCC(O)(P(=O)(O)O)P(=O)(O)O` [pamidronate, Pamidronate], in the data set with rats and mice, the body weight entry is on record as “significant weight loss” and the creatinine clearance entry is listed as “decrease”. Besides, the “renal toxicity at the recommended dose” value with patients [2] is listed as “rare”.

Regarding `[Li]` [lithium, Lithium], in the data set on human population, the “patients who proceeded to end-stage renal disease” value is reported as “seven”, the “patients with nephrogenic diabetes insipidus (NDI)” value is on record as about 90% and the “patients with nephrotic proteinuria” value is given as “Approximately one fourth”. Also, the urine output result in the data set on rats is on record as “marked polyuria”.

Take `Nc1ccc(S(=O)(=O)Nc2ncccn2)cc1` [sulfadiazine, Sulfadiazine]: the “patients who developed oliguria, abdominal pain, renal failure” value in the data set on patients [3] was “All four”.

As to `O=C(O)c1cc(-c2ccc(F)cc2F)ccc1O` [diflunisal, Diflunisal], the concentrations of creatinine entry in data set [4] is listed as “increased”. Also, in the data set with rat hepatocytes (500 μM, compared to the control sample), the LDH leakage entry was “increase”. In the data set on rat hepatocytes, the “intracellular ATP concentrations” value is recorded as “decreased”.
